For data set [1] the following is noted: cited from earlier work; for Non-Hematologic Toxicity No. of Patients With: Cystitis / Non-Hematologic Toxicity No. of Patients With: Diarrhea: 5-day Course; for Number of Patients with Non-Hematologic Toxicity: Cystitis / Number of Patients with Non-Hematologic Toxicity: Diarrhea: Single-Dose Method.
Data set [2] deals with advanced gastrointestinal cancer. Conditions: cited from earlier work.
For data set [3] the following is noted: eight patients with measurable disease, 5-day courses at dose levels associated with toxicity; cited from earlier work.
The subject of data set [4] is advanced malignant melanoma. To be noted: fifteen patients, 90-360 mg/m^2 repeated every 2 weeks; cited from earlier work.
The test system of a further data set is human plasma proteins. Kind of data set: Percent of free camptothecin analogs in human plasma (dialysis, HPLC). It counts as in vitro ADME. To be noted: 100 nM Compound Concentrations. The protocol:
Stocks of various camptothecin analogs were prepared in DMSO. […] Optimum HPLC detection conditions for each camptothecin analog were developed using traditional HPLC methods. Table VIII. Percent of Free Camptothecin Analogs in Human Plasma (100 nM Compound Concentrations)

Data set [5] has as its system panel of over 20 human cancer cell lines. Kind of data set: In vitro studies on a panel of human cancer cell lines. It counts as cell-based. To be noted: compared with Topotecan or SN-38.
Setting [6] is: 15 mg/m^2 X 5, 9 patients treated.
Setting [7] is: 17 mg/m^2 X 5, 5 patients treated.
The mark [8] stands for this setting: 20 mg/m^2 X 5, 10 patients treated.
[9] abbreviates: 5-Day Course (27 Patients Total), 4 wks.
The mark [10] stands for this setting: 5-Day Course (27 Patients Total), 8 wks.
The mark [11] stands for this setting: 5-Day Course (27 Patients Total), 12 wks.
[12] abbreviates: Single-Dose Method (34 Patients Total), 3 wks.
Where [13] appears, read: Single-Dose Method (34 Patients Total), 6 wks.
Where [14] appears, read: Single-Dose Method (34 Patients Total), 9 wks.
Where [15] appears, read: Single-Dose Method (34 Patients Total), 12 wks.

Read-outs that look alike come from different tables or passages of the source.

Regarding `CC[C@@]1(O)C(=O)OCc2c1cc1n(c2=O)Cc2cc3ccccc3nc2-1` [CPT sodium], the results for the Cystitis in data set [1] (5-Day Course (P<0.05)) and in data set [1] (Single Dose) were 48 (P<0.05) % of 27 Patients and 24 % of 34 Patients, respectively. The “Non-Hematologic Toxicity No. of Patients With: Cystitis” value is given as 1 in data set [1] (11 mg/m^2 X 5, 2 patients treated); 4 in data set [1] (setting [6]); 2 in data set [1] (setting [7]); 6 in data set [1] (setting [8]). In addition, the “Non-Hematologic Toxicity No. of Patients With: Diarrhea” value is 1 in data set [1] (setting [6]); 4 in data set [1] (setting [7]); 4 in data set [1] (setting [8]); 1 in data set [1] (22 mg/m^2 X 5, 1 patient treated). Further, the “Number of Patients with Non-Hematologic Toxicity: Cystitis” value in data set [1] (100 mg/m^2, 6 patients treated) was 2; in data set [1] (110 mg/m^2, 2 patients treated), 1; in data set [1] (120 mg/m^2, 7 patients treated) it was 2; in data set [1] (180 mg/m^2, 9 patients treated), 3. Also, the “Number of Patients with Non-Hematologic Toxicity: Diarrhea” value is 1 in data set [1] (110 mg/m^2, 2 patients treated); 4 in data set [1] (120 mg/m^2, 7 patients treated); 2 in data set [1] (180 mg/m^2, 9 patients treated). In addition, the “Objective Results: Improved” value is 1 in data set [2] (setting [9]); 4 in data set [2] (Single-Dose Method (34 Patients Total), 3 wks after start of therapy); 2 in data set [2] (setting [13]); 2 in data set [2] (setting [14]). For the same compound, the “Objective Results: Stable” value in data set [2] (setting [9]) was 12; in data set [2] (setting [10]), 7; in data set [2] (setting [11]) it was 6; in data set [2] (setting [12]) it was 17; in data set [2] (setting [13]), 11; in data set [2] (setting [14]), 8. Also, the “Objective Results: Stable” value in data set [2] (setting [15]) is reported as 6. Moreover, the “Objective Results: Worse” value in data set [2] (setting [9]) is reported as 14; in data set [2] (setting [10]) it was 20; in data set [2] (setting [11]) it was 21; in data set [2] (setting [12]), 13; in data set [2] (setting [13]) it was 21; in data set [2] (setting [14]), 24. The “Objective Results: Worse” value in data set [2] (setting [15]) is 28. Besides, in data set [2] (after 2 months (8 or 9 weeks), of 61 patients), the “patients with partial objective improvement” value is listed as “two”. Moreover, the patients showing improvement result in data set [2] (at 3 months, of 61 patients) is “none”. Moreover, the “patients showing a 25%-50% response” value in data set [2] (at 3 wks, only) is recorded as “*A total of 3 patients showed a 25%-50% response at 3 wks, only”. In data set [3], the clinical benefit result was “No clinical benefit”. In addition, the myelosuppression in data set [4] was 11 patients. Besides, the “patients with a 50% or greater decrease in tumor diameter” value in data set [4] is listed as “None”.

As for `CC[C@@]1(O)C(=O)OCc2c1cc1n(c2=O)Cc2c-1nc1ccccc1c2CC[Si](C)(C)C` [Karenitecin (BNP1350), (4S)-4-ethyl-4-hydroxy-11-[2-(trimethylsilyl)ethyl]-1H-pyrano[3':4':6,7]indolizino[1,2-b]quinoline-3,14(4H,12H)-dione], the “Percent of Free CPTs” value with human plasma proteins was found to be 1%. Moreover, the antitumor potency entry in data set [5] is “significantly more potent”.
